Results reported in patent US20260167632A1, “NICOTINAMIDE DERIVATIVES FOR USE IN TREATING DISORDERS ASSOCIATED WITH KCNK13 ACTIVITY” (Cerevance, Inc., priority 2022, published 2026).
pIC50: −log10 of the molar value.

Key:
[1] = test system: Mouse primary microglia IL-1β; assay: Inflammasome assay in primary mouse postnatal microglia using LPS/0 mM extracellular K+ (IL-1β release); type: cell-based; conditions: 100 ng/mL LPS 3.5 h, compound 30 min, K+ free buffer 2 h, IL-1β levels by MesoScale
Method: 3. Inflammasome Assay in Primary Mouse Postnatal Microglia Using LPS/0 mM Extracellular K^+
Newly shaken mouse microglia cells were added to a 96-well plate and left to adhere overnight. After this time, 100 ng/mL LPS was added to each well and incubated at 37° C. for 3.5 hours, at which point compound addition was undertaken and plates incubated at 37° C. for an additional 30 minutes. After this time, the medium in each well was removed and replaced with K^+ free buffer and the plates then incubated for an additional 2 hours at 37° C. Measurement of IL-1β levels in the sample wells was undertaken using MesoScale Discovery™ MESO QuickPlex SQ 120 and IL-1β antibodies from mouse IL-1β DuoSet ELISA kit (R&D System, DY401).

human KCNK13 = target: T1, human KCNK13 (Homo sapiens, UniProt Q9HB14); assay: KCNK13 antagonist activity, thallium flux FLIPR assay in HEK 293 cells stably expressing human KCNK13; type: cell-based; conditions: HEK 293 cells stably expressing human KCNK13, Tl+ sensitive dye, compound 15 min before thallium sulfate, ten point curves; read-out: hKCNK13 IC50
T1 construct: expressed in transfected cells
T1 sequence (Q9HB14 1-408): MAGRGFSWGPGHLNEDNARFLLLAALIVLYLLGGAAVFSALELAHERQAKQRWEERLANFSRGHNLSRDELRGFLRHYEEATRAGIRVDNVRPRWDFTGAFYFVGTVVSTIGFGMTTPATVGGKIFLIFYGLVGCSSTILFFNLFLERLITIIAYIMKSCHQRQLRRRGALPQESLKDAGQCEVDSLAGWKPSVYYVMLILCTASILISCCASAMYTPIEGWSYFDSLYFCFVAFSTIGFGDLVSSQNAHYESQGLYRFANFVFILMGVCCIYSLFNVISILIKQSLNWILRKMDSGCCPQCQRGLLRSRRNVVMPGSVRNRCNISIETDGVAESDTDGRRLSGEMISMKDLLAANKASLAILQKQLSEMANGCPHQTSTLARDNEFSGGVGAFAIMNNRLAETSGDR
Method in brief: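 HEK 293 cells stably expressing human KCNK13, loaded with Tl+-sensitive dye 1 h at room temperature, then exposed to compound for 15 min before thallium sulfate stimulus. Tl+ influx read by FLIPR fluorescence; IC50 from ten-point half-log curves starting at 100 µM, each point averaging two wells.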

SMILES | pIC50 [1] | pIC50 (human KCNK13)
COc1ncc(F)cc1C(=O)N(C)C1CCc2ccccc21 (single isomer, unassigned) [Example 16, N-(2,3-dihydro-1H-inden-1-yl)-5-fluoro-2-methoxy-N-methylnicotinamide] | ≥ 6.22 | ≥ 6.30
COc1ncc(Cl)cc1C(=O)N(C)Cc1cccc(F)c1 [Example 24, 5-chloro-N-(3-fluorobenzyl)-2-methoxy-N-methylnicotinamide] | ≥ 6.82 | ≥ 7.30
COc1ncc(F)cc1C(=O)N(C)Cc1ccc(F)cc1F [Example 39, N-(2,4-difluorobenzyl)-5-fluoro-2-methoxy-N-methylnicotinamide] | ≥ 6.52 | ≥ 6.70
O=S(=O)(c1cc(F)cnc1OC(F)F)N1CCc2ccc(F)cc2C1 [Example 111, 2-((2-(difluoromethoxy)-5-fluoropyridin-3-yl)sulfonyl)-7-fluoro-1,2,3,4-tetrahydroisoquinoline] |  | ≥ 6.70
CN(Cc1cccc(F)c1)S(=O)(=O)c1cc(F)cnc1OC(F)F [Example 112, 2-(difluoromethoxy)-5-fluoro-N-(3-fluorobenzyl)-N-methylpyridine-3-sulfonamide] |  | ≥ 7.00
CN(Cc1cccc(F)c1)S(=O)(=O)c1cc(Cl)cnc1OC(F)F [Example 113, 5-chloro-2-(difluoromethoxy)-N-(3-fluorobenzyl)-N-methylpyridine-3-sulfonamide] |  | ≥ 6.30
O=S(=O)(c1cc(F)cnc1OC(F)F)N1CCOc2ccc(F)cc2C1 [Example 114, 4-((2-(difluoromethoxy)-5-fluoropyridin-3-yl)sulfonyl)-7-fluoro-2,3,4,5-tetrahydrobenzo[f][1,4]oxazepine] |  | ≥ 6.70
O=S(=O)(c1cc(Cl)cnc1OC(F)F)N1CCOc2ccc(F)cc2C1 [Example 115, 4-((5-chloro-2-(difluoromethoxy)pyridin-3-yl)sulfonyl)-7-fluoro-2,3,4,5-tetrahydrobenzo[f][1,4]oxazepine] |  | ≥ 6.30
O=S(=O)(c1cc(F)cnc1OC(F)F)N1CCc2cc(F)cc(F)c2C1 [Example 116] |  | ≥ 6.30
COc1ncc(Cl)cc1C(=O)N(C)Cc1c(F)cccc1F [Example 117, 5-chloro-N-(2,6-difluorobenzyl)-2-methoxy-N-methylnicotinamide] |  | ≥ 6.70
COc1ncc(Cl)cc1C(=O)N(C)Cc1c(Cl)cccc1Cl [Example 118, 5-chloro-N-(2,6-dichlorobenzyl)-2-methoxy-N-methylnicotinamide] |  | ≥ 6.70
CN(C(=O)c1cc(Cl)cnc1OC(F)F)C1CS(=O)(=O)c2ccccc21 (stereo not shown) [Example 119, 5-chloro-2-(difluoromethoxy)-N-(1,1-dioxido-2,3-dihydrobenzo[b]thiophen-3-yl)-N-methylnicotinamide] |  | ≥ 6.30
N#Cc1cc(F)ccc1S(=O)(=O)N1CCOc2ccc(F)cc2C1 [Example 120, 5-fluoro-2-((7-fluoro-2,3-dihydrobenzo[f][1,4]oxazepin-4(5H)-yl)sulfonyl)benzonitrile] |  | ≥ 6.70
